{
  "source": "ChEMBL document CHEMBL4152373",
  "about": "(Bioorg Med Chem, 2018)",
  "key": {"[1]": {"experiment": "Octanol-PBS buffer partition coefficient, log D of the compound at pH 7.4 by HPLC method"}, "[2]": {"experiment": "Fraction unbound in rat plasma at 5 uM after 4 hrs by equilibrium dialysis method"}, "Rattus norvegicus [3]": {"tested_on": "Rattus norvegicus", "experiment": "Unbound clearance in Sprague-Dawley rat at 1 mg/kg, iv administered as single dose by LC-MS/MS analysis", "format": "ADME, organism-based", "settings": "in vivo"}, "[4]": {"experiment": "Oral bioavailability in Sprague-Dawley rat at 3 mg/kg administered via gavage as single dose by LC-MS/MS analysis", "format": "ADME, organism-based", "settings": "in vivo"}, "Rattus norvegicus [5]": {"tested_on": "Rattus norvegicus", "experiment": "Dose normalized unbound AUC in Sprague-Dawley rat at 3 mg/kg, po administered via gavage as single dose by LC-MS/MS analysis", "format": "ADME, organism-based", "settings": "in vivo"}, "Mus musculus [6]": {"tested_on": "Mus musculus", "experiment": "Antidiabetic activity in C57Bl/6J mouse assessed as inhibition of blood glucose AUC (0 to 120 mins) at 50 mg/kg, po treated prior to glucose challenge by OGTT relative to control", "format": "functional"}, "Mus musculus [7]": {"tested_on": "Mus musculus", "experiment": "Antidiabetic activity in FFA2R knock-out C57Bl/6J mouse assessed as inhibition of blood glucose AUC (0 to 120 mins) at […], po treated prior to glucose challenge by OGTT", "format": "functional, organism-based"}, "[8]": {"molecular_target": "Free fatty acid receptor 1 (Homo sapiens) (UniProt O14842)", "sequence (O14842 whole entry)": "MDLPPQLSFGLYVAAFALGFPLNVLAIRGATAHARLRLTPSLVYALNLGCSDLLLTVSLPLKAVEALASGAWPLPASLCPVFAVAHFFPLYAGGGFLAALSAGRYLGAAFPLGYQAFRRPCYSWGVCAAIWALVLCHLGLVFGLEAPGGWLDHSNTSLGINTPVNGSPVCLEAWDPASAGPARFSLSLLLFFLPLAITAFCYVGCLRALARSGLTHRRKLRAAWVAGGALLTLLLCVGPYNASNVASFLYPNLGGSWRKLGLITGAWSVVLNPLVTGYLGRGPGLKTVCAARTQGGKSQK", "experiment": "Antagonist activity at FFA1R (unknown origin) at 10 uM by aequorin based assay relative to control", "format": "functional"}, "[9]": {"molecular_target": "T1, Free fatty acid receptor 4 (Homo sapiens) (UniProt Q5NUL3)", "T1 sequence (whole entry)": "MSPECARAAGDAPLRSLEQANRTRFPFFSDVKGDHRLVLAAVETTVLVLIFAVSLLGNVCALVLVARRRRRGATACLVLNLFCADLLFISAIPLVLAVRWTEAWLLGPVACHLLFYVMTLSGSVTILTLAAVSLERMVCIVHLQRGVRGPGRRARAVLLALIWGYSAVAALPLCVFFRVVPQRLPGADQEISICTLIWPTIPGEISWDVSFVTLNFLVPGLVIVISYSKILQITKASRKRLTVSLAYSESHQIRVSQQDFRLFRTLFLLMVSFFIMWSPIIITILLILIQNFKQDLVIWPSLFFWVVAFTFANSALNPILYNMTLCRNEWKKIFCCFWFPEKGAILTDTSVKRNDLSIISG", "experiment": "Antagonist activity at FFA4R (unknown origin) at 10 uM by aequorin based assay relative to control", "format": "functional"}, "[10]": {"molecular_target": "T2, Glucose-dependent insulinotropic receptor (Homo sapiens) (UniProt Q8TDV5)", "T2 sequence (whole entry)": "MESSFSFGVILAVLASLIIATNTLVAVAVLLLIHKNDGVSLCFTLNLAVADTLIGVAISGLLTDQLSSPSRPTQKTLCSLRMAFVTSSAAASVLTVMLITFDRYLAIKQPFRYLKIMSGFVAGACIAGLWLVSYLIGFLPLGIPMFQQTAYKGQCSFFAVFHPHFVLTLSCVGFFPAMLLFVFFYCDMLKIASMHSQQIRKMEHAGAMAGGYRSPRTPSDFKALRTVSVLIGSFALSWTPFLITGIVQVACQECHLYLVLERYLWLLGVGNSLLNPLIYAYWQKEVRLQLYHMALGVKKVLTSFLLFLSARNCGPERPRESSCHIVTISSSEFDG", "experiment": "Antagonist activity at GPR119 (unknown origin) at 10 uM by cAMP accumulation based assay relative to control", "format": "functional"}, "[11]": {"molecular_target": "Hydroxycarboxylic acid receptor 2 (Homo sapiens) (UniProt Q8TDS4)", "sequence (Q8TDS4 whole entry)": "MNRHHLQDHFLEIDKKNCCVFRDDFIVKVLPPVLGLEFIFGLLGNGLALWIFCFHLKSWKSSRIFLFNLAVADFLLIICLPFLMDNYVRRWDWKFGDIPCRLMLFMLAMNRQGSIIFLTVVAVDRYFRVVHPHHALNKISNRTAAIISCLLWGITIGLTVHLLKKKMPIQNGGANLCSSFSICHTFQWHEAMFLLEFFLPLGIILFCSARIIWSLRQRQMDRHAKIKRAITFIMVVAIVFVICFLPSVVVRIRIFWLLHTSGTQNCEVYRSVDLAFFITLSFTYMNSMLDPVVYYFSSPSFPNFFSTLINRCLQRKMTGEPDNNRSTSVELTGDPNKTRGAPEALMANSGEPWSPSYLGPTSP", "experiment": "Agonist activity at GPR109a (unknown origin) at 10 uM by aequorin based assay relative to control", "format": "functional"}, "[12]": {"molecular_target": "Hydroxycarboxylic acid receptor 2 (Homo sapiens) (UniProt Q8TDS4)", "experiment": "Antagonist activity at GPR109a (unknown origin) at 10 uM by aequorin based assay relative to control", "format": "functional"}, "[13]": {"molecular_target": "Hydroxycarboxylic acid receptor 3 (Homo sapiens) (UniProt P49019)", "sequence (P49019 whole entry)": "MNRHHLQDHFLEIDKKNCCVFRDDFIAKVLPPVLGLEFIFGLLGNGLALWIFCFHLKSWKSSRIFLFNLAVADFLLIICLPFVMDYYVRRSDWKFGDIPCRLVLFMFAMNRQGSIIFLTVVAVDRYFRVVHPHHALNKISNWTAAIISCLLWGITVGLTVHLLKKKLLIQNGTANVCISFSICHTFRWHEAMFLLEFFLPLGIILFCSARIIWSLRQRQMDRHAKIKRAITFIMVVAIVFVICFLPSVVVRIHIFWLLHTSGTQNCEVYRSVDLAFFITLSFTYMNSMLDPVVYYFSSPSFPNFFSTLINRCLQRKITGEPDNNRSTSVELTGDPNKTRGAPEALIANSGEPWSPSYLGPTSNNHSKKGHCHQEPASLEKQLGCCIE", "experiment": "Antagonist activity at GPR109b (unknown origin) at 10 uM by aequorin based assay relative to control", "format": "functional"}, "[14]": {"molecular_target": "T3, Free fatty acid receptor 3 (Homo sapiens) (UniProt O14843)", "T3 sequence (whole entry)": "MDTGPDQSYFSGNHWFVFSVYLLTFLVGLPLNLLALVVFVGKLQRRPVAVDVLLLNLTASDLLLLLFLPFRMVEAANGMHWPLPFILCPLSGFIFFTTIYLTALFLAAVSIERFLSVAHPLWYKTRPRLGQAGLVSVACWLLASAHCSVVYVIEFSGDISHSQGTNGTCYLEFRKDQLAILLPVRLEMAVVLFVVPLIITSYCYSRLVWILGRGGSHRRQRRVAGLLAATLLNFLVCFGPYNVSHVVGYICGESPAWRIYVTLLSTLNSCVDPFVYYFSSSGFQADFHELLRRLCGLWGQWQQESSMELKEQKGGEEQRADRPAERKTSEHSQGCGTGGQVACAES", "settings": "10 uM"}, "[15]": {"molecular_target": "T4, Glucocorticoid receptor (Homo sapiens) (UniProt P04150)", "T4 sequence (whole entry)": "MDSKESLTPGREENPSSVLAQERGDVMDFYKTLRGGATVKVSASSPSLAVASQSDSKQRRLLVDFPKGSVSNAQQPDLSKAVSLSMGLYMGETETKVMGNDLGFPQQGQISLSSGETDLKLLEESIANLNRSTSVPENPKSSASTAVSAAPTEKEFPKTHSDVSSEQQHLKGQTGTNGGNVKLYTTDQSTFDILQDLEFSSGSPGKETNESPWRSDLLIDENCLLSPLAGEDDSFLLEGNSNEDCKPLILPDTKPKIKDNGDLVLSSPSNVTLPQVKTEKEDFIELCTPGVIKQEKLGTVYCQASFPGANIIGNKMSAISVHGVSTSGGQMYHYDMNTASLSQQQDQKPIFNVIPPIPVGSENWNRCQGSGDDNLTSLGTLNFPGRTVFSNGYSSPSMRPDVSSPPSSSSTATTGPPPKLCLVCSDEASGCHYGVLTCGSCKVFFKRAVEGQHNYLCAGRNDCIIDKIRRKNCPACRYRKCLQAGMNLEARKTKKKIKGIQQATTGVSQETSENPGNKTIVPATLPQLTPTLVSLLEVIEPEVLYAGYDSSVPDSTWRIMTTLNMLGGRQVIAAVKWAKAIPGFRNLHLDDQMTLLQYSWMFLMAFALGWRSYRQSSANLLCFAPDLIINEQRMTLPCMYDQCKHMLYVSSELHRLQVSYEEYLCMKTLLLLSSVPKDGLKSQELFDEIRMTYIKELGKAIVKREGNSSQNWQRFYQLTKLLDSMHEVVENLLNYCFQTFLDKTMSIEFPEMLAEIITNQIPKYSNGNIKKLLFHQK", "settings": "10 uM", "description": "Antagonist activity at GCR (unknown origin) at 10 uM by cAMP accumulation based assay relative to control"}},
  "note": "Activity calls are given as the source filed them. No cut-off for these calls is given here.",
  "data": [
    {"smiles": "COc1ccc(-c2ccccc2-c2csc(N(C(=O)[C@@H](CC(=O)O)CC3CCCC3)C3CC3)n2)cn1", "values": [
      {"measurement": "logD", "setting": "[1]", "result": 2.6},
      {"measurement": "fraction unbound at 4 h, 5 µM", "setting": "[2]", "result": 0.0006},
      {"measurement": "CL free", "setting": "Rattus norvegicus [3]", "result": 2617, "unit": "mL/min/kg"},
      {"measurement": "bioavailability", "setting": "[4]", "result": 47, "unit": "%"},
      {"measurement": "fAUC/dose", "setting": "Rattus norvegicus [5]", "result": 0.29, "unit": "µM·min"},
      {"measurement": "inhibition in vivo at 50 mg/kg", "setting": "Mus musculus [6]", "result": 33, "unit": "%"},
      {"measurement": "inhibition", "setting": "Mus musculus [7]", "result": "Active"},
      {"measurement": "inhibition", "setting": "[8]", "result": 13, "unit": "%"},
      {"measurement": "inhibition", "setting": "[9]", "result": 16, "unit": "%"},
      {"measurement": "inhibition", "setting": "[10]", "result": "< 10", "unit": "%"},
      {"measurement": "Activity", "setting": "[11]", "result": "< 10", "unit": "%"},
      {"measurement": "inhibition", "setting": "[12]", "result": "< 10", "unit": "%"},
      {"measurement": "inhibition", "setting": "[13]", "result": 22, "unit": "%"},
      {"measurement": "inhibition", "setting": "[14]", "result": "< 10", "unit": "%"},
      {"measurement": "inhibition", "setting": "[15]", "result": "< 10", "unit": "%"}
    ]}
  ]
}
